Test results as given in PubChem BioAssay AID1963440 (Molecular Pharmacology Branch, DTP, NCI, 2024).

Test system: NCI-H1417 complex spheroids, growth % test/control
Test: Anticancer human tumor NCI-H1417 cell line growth inhibition [Asc];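 further: spheroids exposed to compounds for 7 days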;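 on viability, T/C: 100% = DMSO vehicle control wells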
Details: for IC50: curve of first compound; for viability, T/C: stronger effect = lower value; active means viability on the fitted dose curve at most 10% of control; inactive means the rest
Summary of the method: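 Concentration series start at each agent's clinical Cmax, or at 10 microM when none is established, and drop in half-log steps; agents are applied alone or together to complex spheroids built with HUVEC and hMSC.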

COc1c(OCCCN2CCOCC2)ccc2c3n(c(=NC(=O)c4cnc(N)nc4)nc12)CCN3 + CNC(C)C(=O)NC1CN(S(=O)(=O)c2cccc(S(=O)(=O)N3CCC4CCC(C(=O)NC(c5ccccc5)c5ccccc5)N4C(=O)C(NC(=O)C(C)NC)C3)c2)CCC2CCC(C(=O)NC(c3ccccc3)c3ccccc3)N2C1=O
inactive: viability, T/C (second compound 0.01 µM, first compound 0.00316 µM) 95.5% | viability, T/C (second compound 0.01 µM, first compound 0.01 µM) 109% | viability, T/C (second compound 0.01 µM, first compound 0.0316 µM) 100% | viability, T/C (second compound 0.01 µM, first compound 0.1 µM) 82.3% | viability, T/C (second compound 0.01 µM, first compound 0.316 µM) 79.4% | viability, T/C (second compound 0.01 µM, first compound 1 µM) 58.4% | viability, T/C (second compound 0.0316 µM, first compound 0.00316 µM) 96.1% | viability, T/C (second compound 0.0316 µM, first compound 0.01 µM) 93.8% | viability, T/C (second compound 0.0316 µM, first compound 0.0316 µM) 91.1% | viability, T/C (second compound 0.0316 µM, first compound 0.1 µM) 78.5% | viability, T/C (second compound 0.0316 µM, first compound 0.316 µM) 77.2% | viability, T/C (second compound 0.0316 µM, first compound 1 µM) 57.8% | viability, T/C (second compound 0.1 µM, first compound 0.00316 µM) 95.4% | viability, T/C (second compound 0.1 µM, first compound 0.01 µM) 96.5% | viability, T/C (second compound 0.1 µM, first compound 0.0316 µM) 96.6% | viability, T/C (second compound 0.1 µM, first compound 0.1 µM) 81.1% | viability, T/C (second compound 0.1 µM, first compound 0.316 µM) 71.4% | viability, T/C (second compound 0.1 µM, first compound 1 µM) 53.8% | viability, T/C (second compound 0.316 µM, first compound 0.00316 µM) 99.4% | viability, T/C (second compound 0.316 µM, first compound 0.01 µM) 97.7% | viability, T/C (second compound 0.316 µM, first compound 0.0316 µM) 87.2% | viability, T/C (second compound 0.316 µM, first compound 0.1 µM) 74.1% | viability, T/C (second compound 0.316 µM, first compound 0.316 µM) 69.2% | viability, T/C (second compound 0.316 µM, first compound 1 µM) 56.4% | viability, T/C (second compound 1 µM, first compound 0.00316 µM) 97.7% | viability, T/C (second compound 1 µM, first compound 0.01 µM) 99% | viability, T/C (second compound 1 µM, first compound 0.0316 µM) 90.1% | viability, T/C (second compound 1 µM, first compound 0.1 µM) 83.4% | viability, T/C (second compound 1 µM, first compound 0.316 µM) 77.2% | viability, T/C (second compound 1 µM, first compound 1 µM) 56.4%
> 1 µM: IC50 (second compound 0.01 µM) | IC50 (second compound 0.0316 µM) | IC50 (second compound 0.1 µM) | IC50 (second compound 0.316 µM) | IC50 (second compound 1 µM)

C=CC(=O)N1CCN(c2nc(=O)n(-c3c(C)ccnc3C(C)C)c3nc(-c4c(O)cccc4F)c(F)cc23)C(C)C1 (stereo not given) + CCN1C(C(=O)NC23CCC(C(=O)O)(CC2)CC3)C(c2cccc(Cl)c2F)C2(C(=O)Nc3cc(Cl)ccc32)C12CCCCC2
> 10 µM: IC50 (second compound 0.03 µM) | IC50 (second compound 0.0949 µM) | IC50 (second compound 0.3 µM) | IC50 (second compound 0.949 µM) | IC50 (second compound 3 µM)
inactive: viability, T/C (second compound 0.03 µM, first compound 0.0316 µM) 94.4% | viability, T/C (second compound 0.03 µM, first compound 0.1 µM) 100% | viability, T/C (second compound 0.03 µM, first compound 0.316 µM) 109% | viability, T/C (second compound 0.03 µM, first compound 1 µM) 101% | viability, T/C (second compound 0.03 µM, first compound 3.16 µM) 115% | viability, T/C (second compound 0.03 µM, first compound 10 µM) 105% | viability, T/C (second compound 0.0949 µM, first compound 0.0316 µM) 102% | viability, T/C (second compound 0.0949 µM, first compound 0.1 µM) 94.4% | viability, T/C (second compound 0.0949 µM, first compound 0.316 µM) 98.4% | viability, T/C (second compound 0.0949 µM, first compound 1 µM) 101% | viability, T/C (second compound 0.0949 µM, first compound 3.16 µM) 104% | viability, T/C (second compound 0.0949 µM, first compound 10 µM) 119% | viability, T/C (second compound 0.3 µM, first compound 0.0316 µM) 102% | viability, T/C (second compound 0.3 µM, first compound 0.1 µM) 107% | viability, T/C (second compound 0.3 µM, first compound 0.316 µM) 106% | viability, T/C (second compound 0.3 µM, first compound 1 µM) 94.3% | viability, T/C (second compound 0.3 µM, first compound 3.16 µM) 99.8% | viability, T/C (second compound 0.3 µM, first compound 10 µM) 112% | viability, T/C (second compound 0.949 µM, first compound 0.0316 µM) 94.3% | viability, T/C (second compound 0.949 µM, first compound 0.1 µM) 95.4% | viability, T/C (second compound 0.949 µM, first compound 0.316 µM) 93.1% | viability, T/C (second compound 0.949 µM, first compound 1 µM) 97.9% | viability, T/C (second compound 0.949 µM, first compound 3.16 µM) 95.5% | viability, T/C (second compound 0.949 µM, first compound 10 µM) 99.5% | viability, T/C (second compound 3 µM, first compound 0.0316 µM) 91.6% | viability, T/C (second compound 3 µM, first compound 0.1 µM) 93.2% | viability, T/C (second compound 3 µM, first compound 0.316 µM) 98.5% | viability, T/C (second compound 3 µM, first compound 1 µM) 93.7% | viability, T/C (second compound 3 µM, first compound 3.16 µM) 93.4% | viability, T/C (second compound 3 µM, first compound 10 µM) 103%
